The results in this text go back to PMC10343660, “Mechanochemical Studies on Coupling of Hydrazines and Hydrazine Amides with Phenolic and Furanyl Aldehydes—Hydrazones with Antileishmanial and Antibacterial Activities” (Molecules, 2023).

The test system of one data set is S. aureus ATCC25923. As to the kind of experiment: MIC determination on S. aureus ATCC25923 (microdilution, resazurin). Format: cell-based, Staphylococcus aureus. Particulars: value outside parentheses, read-out: S. aureus ATCC25923 MIC. For orientation: Broth dilution looks for growth in wells or tubes with falling amounts of substance.
The test system of data set [1] is L. donovani axenic amastigotes (LV9). As to the kind of experiment: In vitro antileishmanial evaluation on L. donovani axenic amastigotes (SYBR Green). The data set is classed as cell-based, Leishmania donovani. Particulars: Leishmania donovani; LV9 axenic amastigote forms; read-out: L. donovani Axenic Amastigote IC50 ± SD. Here is the method:
L. donovani (MHOM/ET/67/HU3, also called LV9) promastigotes and axenic amastigotes were maintained according to the protocols previously described.
In vitro antileishmanial evaluation on L. donovani axenic amastigotes. This evaluation was performed using the SYBR Green method as previously described. IC50 values were calculated using the ICEstimator version 1.2 software (http://www.antimalarial-icestimator.net/runregression1.2.htm, accessed on 5 April 2023). Miltefosine was used as the reference drug.

Data set [2] concerns L. donovani intramacrophage amastigotes. The data set can be described thus: In vitro antileishmanial evaluation on intramacrophage amastigotes (RAW 264.7 infected, SYBR Green). The data set is classed as cell-based, Leishmania donovani. The procedure: In vitro antileishmanial evaluation on intramacrophage amastigotes. RAW 264.7 macrophages were infected with L. donovani axenic amastigotes according to a ratio of 10 parasites per macrophage. […] The in vitro treatment was applied 24 h post-infection, and the treatment duration was 48 h. […] The activity of the compounds is expressed as IC50, calculated using the ICEstimator version 1.2 software. Miltefosine was used as the reference drug.

The next data set deals with E. coli ATCC25922. The data set can be described thus: MIC determination on E. coli ATCC25922 (microdilution, resazurin). Format: cell-based, Escherichia coli. The conditions noted are these: value outside parentheses, read-out: E. coli ATCC25922 MIC.
The test system of the next data set is S. aureus ATCC29213. As to the kind of experiment: MIC determination on S. aureus ATCC29213. The data set is classed as cell-based, Staphylococcus aureus. Particulars: value in parentheses.
Data set [3] deals with Mycobacterium tuberculosis H37Rv. The data set can be described thus: MIC determination for Mycobacterium tuberculosis H37Rv (REMA). The data set is classed as cell-based. The conditions noted are these: Mycobacterium tuberculosis, H37RV.

Values after ≈ are worked out from the molar mass of the structure shown. Read-outs that look alike come from different tables or passages of the source.

The term MIC denotes the lowest concentration found to suppress growth. In general, IC50 refers to the concentration at which inhibition is half-maximal. Usually melting point stands for the temperature of the solid-liquid transition.

`O=C(N/N=C/C=C/c1ccc([N+](=O)[O-])o1)c1ccncc1` [Compound 3, N′-[(1E,2E)-3-(5-Nitro-2-furyl)-2-propen-1-ylidene]isonicotinohydrazide] yielded a melting point of 252.1 to 254 °C. Besides, the MIC in the data set with S. aureus ATCC25923 (Staphylococcus aureus, ATCC25923) was determined as 1.75 µM (≈ 0.501 µg/mL). Further, in the data set with S. aureus ATCC25923, the MIC amounted to 1.75 µM (≈ 0.501 µg/mL). Moreover, the IC50 in data set [1] came out at 600 ± 100 nM. In data set [2] (CC50 (macrophage RAW 264.7)/IC50 (intramacrophage form of L. donovani)), the “SI (Selectivity Index)” value was more than 200. The IC50 in data set [2] (Leishmania donovani, RAW264.7, RAW 264.7 macrophages infected, treatment 48 h, read-out: L. donovani Intramacrophage Amastigote IC50 ± SD) came to 500 ± 100 nM. For the same compound, the MIC with E. coli ATCC25922 (Escherichia coli, ATCC25922) stood at 28 µM (≈ 8.01 µg/mL). Also, the MIC with E. coli ATCC25922 came out at 28 µM (≈ 8.01 µg/mL). Moreover, the MIC in the data set on S. aureus ATCC29213 (Staphylococcus aureus, ATCC29213) amounted to 7 µM (≈ 2 µg/mL). Moreover, the MIC in the data set with S. aureus ATCC29213 is listed as 7 µM (≈ 2 µg/mL). Also, the MIC in data set [3] (168 h, REMA, 7 days, read-out: M. tuberculosis H37Rv MIC) was 1 µM (≈ 0.286 µg/mL). For the same compound, the MIC90 in data set [3] (range for the active compounds, read-out: minimum inhibitory concentration (MIC90) on M. tuberculosis H37Rv) lay within 0.6 to 7.4 µM (≈ 0.172 to 2.12 µg/mL).
